From paper PMC7948405, “Small-molecule control of neurotransmitter sulfonation” (The Journal of Biological Chemistry, 2020)

Key:
Experiment in all cases: Initial-rate inhibition of SULT-catalyzed 1-HP sulfonation
Type in all cases: biochemical
SULT2A1 = target: T1, SULT2A1 (Homo sapiens, UniProt Q06520); details: concentrations as high as 10 μM
T1 construct: E. coli–optimized SULT coding regions were inserted into a pGEX-6P expression vector; N-His/GST/MBP triple tag (PreScission-cleavable) (N, cleaved yes); made in house; host or cells: E. coli BL21(DE3)
T1 sequence (Q06520 1-285): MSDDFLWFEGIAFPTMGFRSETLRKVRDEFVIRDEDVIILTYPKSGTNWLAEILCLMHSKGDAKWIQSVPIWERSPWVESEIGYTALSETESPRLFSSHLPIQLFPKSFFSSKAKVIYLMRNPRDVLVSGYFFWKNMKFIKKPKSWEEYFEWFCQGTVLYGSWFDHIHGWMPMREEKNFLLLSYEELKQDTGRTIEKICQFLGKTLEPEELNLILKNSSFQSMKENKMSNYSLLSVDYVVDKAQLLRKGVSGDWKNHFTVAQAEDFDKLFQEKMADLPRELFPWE
Description: (§1) The affinity and specificity of CMP12 and CMP13 were evaluated in initial-rate studies using the four major SULT isoforms expressed in the brain and liver ([27])—SULT1A1, SULT1E1, SULT1A3, and SULT2A1. Initial-rate vs [inhibitor] plots are presented in Fig. 3, A–B. The data are normalized to the rates in the absence of inhibitor. Solid lines passing through the data are the predictions of least-squares fitting to a single-binding-site, partial-inhibition model. The best-fit parameters are found in Table 1. […] Both compounds are partial inhibitors, and their percent inhibition values at saturation (83 and 98%, respectively) agree well with the predicted values.
(§2) Figure 3 Affinity, specificity, and binding sites of CMP12 and CMP13. A and B, inhibition studies. Initial rates of SULT-catalyzed 1-HP sulfonation are plotted as a function of inhibitor concentration. Rates are normalized to the rate observed in the absence of the inhibitor. Inhibition of the major SULT isoforms found in the brain and liver were tested. SULT activity was monitored via the sulfonation-dependent change in 1-HP fluorescence (λex = 325 nm, λem = 375 nm ([15], [28])). Reaction conditions were as follows: SULT (20 nM, active sites), PAPS (0.50 mM, 17 × Km), 1-HP (5.0 μM, 61 × Km), KPO4 (50 mM), pH 7.5, 25(±2) °C. Less than 5% of the concentration-limiting substrate was converted to the product at reaction endpoints. Each data point is the average of three independent determinations. The lines passing through the data are least-squares fits to a noncompetitive partial-inhibition model (see Experiment and Initial rate). C, CMP8 competes with CMP12 and CMP13. Initial rates at saturating CMP12 or CMP13 are plotted as a function of CMP8 concentration. Rates are normalized to the rate observed in the absence of the inhibitor. […] Lines passing through the data are the predictions of a noncompetitive partial-inhibition model in which inhibitors compete for the same site (see Experiment and Binding competition). SULT, sulfotransferase; PAP, 3′-phosphoadenosine-5′-phosphate; SULT1A3, sulfotransferase 1A3; PAPS, 3’-phosphoadenosine 5’-phosphosulfate; 1-HP, 1-hydroxypyrene.
(§3) Initial-rate inhibition parameters were obtained from classical initial-rate studies ([16], [28], [43]). Reactions were initiated by addition of PAPS (0.50 mM, 17 × Km) to a solution containing SULT1A3 (20 nM, active sites), inhibitor (0.2–20 × Ki), 1-HP (5.0 μM, 60 × Km), and KPO4 (50 mM), pH 7.5, 25(±2) °C. Reaction progress was monitored via the fluorescence change associated with 1-HP sulfonation (λex = 325 nm, λem = […] ([15], [28])). Less than 5% of the 1-HP was converted to the product at reaction endpoints. Ki and kcat inh (i.e., turnover at saturating inhibitor and substrate) were obtained by fitting to the following quadratic equation for noncompetitive, partial inhibition at [S] >> Km ([44]):(7) v/Vmax=([Etot]+[ESI](α-1))/[Etot] where(8) α=kcat inh/kcat and(9) [ESI]=[([E]tot+[I]tot+Ki)−[([E]tot+[I]tot+Ki)^2−4·[I]tot·[E]tot]^1/2]/2

SULT1A1 = target: T2, SULT1A1 (Homo sapiens, UniProt P50225)
T2 construct: E. coli–optimized SULT coding regions were inserted into a pGEX-6P expression vector; N-His/GST/MBP triple tag (PreScission-cleavable) (N, cleaved yes); made in house; host or cells: E. coli BL21(DE3)
T2 sequence (P50225 whole entry): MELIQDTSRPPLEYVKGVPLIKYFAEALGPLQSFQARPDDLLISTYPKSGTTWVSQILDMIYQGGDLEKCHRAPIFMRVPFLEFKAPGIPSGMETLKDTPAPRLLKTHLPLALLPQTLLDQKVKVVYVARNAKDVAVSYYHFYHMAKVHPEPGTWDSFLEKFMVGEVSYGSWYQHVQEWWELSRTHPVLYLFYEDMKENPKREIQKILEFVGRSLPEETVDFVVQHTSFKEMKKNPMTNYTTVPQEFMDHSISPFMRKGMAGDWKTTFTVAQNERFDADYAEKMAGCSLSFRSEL
Description: as §1, §2, §3

SULT1E1 = target: T3, SULT1E1 (Homo sapiens, UniProt P49888); details: concentrations as high as 10 μM
T3 construct: E. coli–optimized SULT coding regions were inserted into a pGEX-6P expression vector; N-His/GST/MBP triple tag (PreScission-cleavable) (N, cleaved yes); made in house; host or cells: E. coli BL21(DE3)
T3 sequence (P49888 1-294): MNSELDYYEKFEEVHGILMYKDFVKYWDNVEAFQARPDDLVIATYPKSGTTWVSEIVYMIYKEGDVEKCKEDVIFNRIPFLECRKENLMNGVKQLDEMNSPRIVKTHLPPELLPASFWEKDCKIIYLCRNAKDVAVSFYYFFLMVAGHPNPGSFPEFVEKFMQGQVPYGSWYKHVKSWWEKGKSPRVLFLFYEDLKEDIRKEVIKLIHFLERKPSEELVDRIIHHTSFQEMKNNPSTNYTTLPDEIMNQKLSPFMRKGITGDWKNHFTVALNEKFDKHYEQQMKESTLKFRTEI
Description: as §1, §2, §3

| SMILES | inhibition of SULT2A1 (SULT2A1) | inhibition of SULT1A1 (SULT1A1; concentrations as high as 10 μM) | inhibition of SULT1E1 (SULT1E1) | Ki (SULT1A1; SULT1A1, initial rate) [µM] |
| --- | --- | --- | --- | --- |
| CC(C)Cc1ccc2cc(CCC(N)=O)ccc2n1 [CMP12] | no detectable inhibition | no detectable inhibition | no detectable inhibition | – |
| CC(C)Cc1ccc2cc(/C=C/C(N)=O)cnc2n1 [CMP13] | behaved similarly | – | behaved similarly | 3.1 ± 0.2 |
